Legend:
FabK = FabK activity assay, activation by monovalent cations; format: biochemical, Streptococcus pneumoniae; settings: NH4+ at 100 mM
Protocol: FabK catalyses the reduction of enoyl-ACPs with the concommitant oxidation of NADH. Crotonoyl-ACP can be prepared as described below. The reduction of crotonoyl-ACP to butyryl-ACP can be monitored by following the change in absorbance at 340 nm as NADH is oxidised.
Assays were carried out in Costar 3696 half-area plates in a fmal assay volume of 150 μl on a Spectramax platereader. Substrates, NADH and crotonoyl ACP, were incubated with FabK enzyme in […] N-[2-acetamido]-2 iminodiacetic acid (ADA), pH 6.5, 100 mM NH4Cl, 4% glycerol at 30° C. and the reaction monitored at 340 nm. This assaying can also be performed using crotonyl CoA, NADPH or an NADH analogue as a substrate.

[1] = tested on: bacterial fatty acid biosynthesis; settings: cited from earlier work
FabH [2] = settings: through formation of dead end inhibition complexes with enzyme
FabI = FabI (Escherichia coli, UniProt P0AEK4); settings: Heath et al. 1996; cited from earlier work
FabI, sequence (P0AEK4 whole entry): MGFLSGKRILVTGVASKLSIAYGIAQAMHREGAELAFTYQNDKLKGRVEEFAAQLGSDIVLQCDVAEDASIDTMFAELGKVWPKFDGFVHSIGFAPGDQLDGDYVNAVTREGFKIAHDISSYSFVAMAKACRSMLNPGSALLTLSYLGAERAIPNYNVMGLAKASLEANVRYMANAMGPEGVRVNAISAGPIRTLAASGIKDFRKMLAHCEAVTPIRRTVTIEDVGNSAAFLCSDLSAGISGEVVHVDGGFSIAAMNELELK

FabH [3] = target: FabH (Escherichia coli, UniProt P0A6R0); settings: Heath et al. 1996; cited from earlier work
FabH (Escherichia coli, UniProt P0A6R0), sequence (P0A6R0 whole entry): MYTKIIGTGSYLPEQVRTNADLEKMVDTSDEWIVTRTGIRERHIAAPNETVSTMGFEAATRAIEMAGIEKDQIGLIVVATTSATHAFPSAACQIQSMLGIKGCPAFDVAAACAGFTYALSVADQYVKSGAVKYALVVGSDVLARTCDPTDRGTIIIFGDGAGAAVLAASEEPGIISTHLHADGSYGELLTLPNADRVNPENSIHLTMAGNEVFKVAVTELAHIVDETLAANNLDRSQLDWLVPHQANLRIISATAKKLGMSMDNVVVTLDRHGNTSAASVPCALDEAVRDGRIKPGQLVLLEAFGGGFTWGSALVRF

Compound: N [NH4^+]
- activation of the FabK reaction over the reaction with no monovalent cations (FabK): about 300 fold

Compound: C/C=C/C/C=C/CCC(=O)[C@H]1O[C@H]1C(N)=O [Cerulenin]
- inhibition of bacterial fatty acid biosynthesis [1]: potent inhibitors

Compound: Acetyl-ACP
- inhibition of FabH (FabH [2]): inhibitor of FabH

Compound: C=C/C(C)=C/[C@@]1(C)SC(=O)C(C)=C1O [thiolactomycin]
- inhibition of bacterial fatty acid biosynthesis [1]: potent inhibitors

Compound: palmitoyl-ACP
- feedback inhibition of FabI (FabI): feedback inhibition
- feedback inhibition of FabH (FabH [3]): feedback inhibition

Reference: patent US6951729B1, “High throughput screening method for biological agents affecting fatty acid biosynthesis” (Affinium Pharmaceuticals, Inc., priority 1999, dated 2005)
